US20140329833A1, “LYSINE DEMETHYLASE INHIBITORS FOR INFLAMMATORY DISEASES OR CONDITIONS” (ORYZON GENOMICS, S.A, priority 2011, published 2014)

Experiments:
LSD1 [1] = target: T1, LSD1 (Homo sapiens, UniProt O60341); experiment: LSD1 demethylase inhibition assay (Amplex Red peroxide/peroxidase-coupled); type: biochemical; design: purchased BPS Bioscience Inc; details: from the IC50 values for LSD1, MAO-A and MAO-B
Description: Compounds for use in the methods of the invention can be identified by their ability to inhibit LSD1. The ability of compounds to inhibit LSD1 can be tested as follows. Human recombinant LSD1 protein was purchased from BPS Bioscience Inc. In order to monitor LSD1 enzymatic activity and/or its inhibition rate by the LSD1 inhibitor(s) of interest, di-methylated H3-K4 peptide (Millipore) was chosen as a substrate.
Within the experiment, each concentration of inhibitor was tested in duplicate. […] The enzymatic reactions were set up in a 50 mM sodium phosphate, pH 7.4 buffer. At the end of the incubation, Amplex® Red reagent and horseradish peroxidase (HPR) solution were added to the reaction according to the recommendations provided by the supplier (Invitrogen), and left to incubate for 30 extra minutes at room temperature in the dark. A 1 μM H2O2 solution was used as a control of the kit efficiency. […] Arbitrary units were used to measure level of H2O2 produced in the absence and/or in the presence of inhibitor.
The maximum demethylase activity of LSD1 was obtained in the absence of inhibitor and corrected for background fluorescence in the absence of LSD1. The Ki (IC50) of each inhibitor was estimated at half of the maximum activity.

LSD1 [2] = target: T1, LSD1; details: Ueda et al. (2009) J. Am. Chem. Soc. 131(48):17536-17537; cited from earlier work
[3] = system: dimethylated H3K4 in SH-SY5Y cells; experiment: Western blot for H3K4 methylation in SH-SY5Y cells; type: cell-based; details: Dual-1 100 μM vs parnate 250 μM
From the text: FIG. 3 Compound Dual-1 Increases Histone Methylation.
B-actin was used as a loading control.

selectivity class (LSD1 vs MAO-A and MAO-B) (LSD1 [1]): dual LSD1/MAO-B selective inhibitors
SMILES: NC(=O)CN[C@H]1C[C@@H]1c1ccc(OCc2ccccc2)cc1 (racemic) [Compound 1]
IC50 (LSD1 [2]): 2.5 µM
potency at increasing global H3K4 methylation levels compared to tranylcypromine [3]: ten-fold or more potent
